Data published in publication PMC12656268, “Venom Peptides Across Asian and American Tarantulas Utilize Dual Pharmacology to Target Activation and Fast Inactivation of Voltage-Gated Sodium Channels” (Toxins, 2025).
Positions of bridges follow the written chain, without caps; N, C: chain ends. Residues, ends and D or L forms follow the SMILES beside them.

What was measured:
CaV3.2 = experiment: hCaV3.2 (T-type) current, automated whole-cell patch clamp (QPatch 16X); type: cell-based, human; settings: up to 10 μM tested; holding −90 mV, 60 ms steps to −30 mV from −120 mV 60 ms conditioning pulse; 5 min incubation; Figure S1
Method: (§1) Unless otherwise specified, all cell culture reagents were obtained from Life Technologies (Carlsbad, CA, USA). The human neuroblastoma cell line SH-SY5Y (ATCC CRL-2266; Manassas, VA, USA) was maintained in RPMI medium supplemented with 15% fetal bovine serum (FBS) and 2 mM L-glutamine. HEK293 cells stably expressing human NaV channel isoforms together with the β1 auxiliary subunit (SB Drug Discovery, Glasgow, UK) were propagated in Minimal Essential Medium (MEM; Sigma-Aldrich, St. Louis, MO, USA) containing 10% FBS, 100 U/mL penicillin, 100 µg/mL streptomycin, 2 mM L-glutamine, and selective antibiotics (blasticidin, geneticin, and zeocin) at concentrations recommended by the supplier. HEK293T cells expressing the human CaV3.2 channel (a generous gift from Prof. Emmanuel Bourinet, Institut de Génomique Fonctionnelle, Université de Montpellier, France, and Prof. Edward Perez-Reyes, University of Virginia School of Medicine, USA) were grown in Dulbecco’s MEM supplemented with 10% FBS, 100 U/mL penicillin, 100 µg/mL streptomycin, and 750 µg/mL geneticin.
CaV3.2 channel currents were recorded from HEK293 cells expressing hCaV3.2 using an automated QPatch 16X platform (Sophion Bioscience A/S). […]

hNaV1.6 = hNaV1.6 (Homo sapiens, UniProt Q9UQD0); experiment: hNaV1.6 peak current inhibition, automated whole-cell patch clamp (QPatch 16X); type: cell-based; settings: for IC50: HEK293 + β1, holding −80 mV, 20 ms step to 0 mV from −120 mV 200 ms prepulse, 5 min incubation, mean ± SEM, 3 to 9 independent experiments, read-out: IC50, inhibition of peak current, NaV1.6
Sequence of hNaV1.6 (Q9UQD0 whole entry): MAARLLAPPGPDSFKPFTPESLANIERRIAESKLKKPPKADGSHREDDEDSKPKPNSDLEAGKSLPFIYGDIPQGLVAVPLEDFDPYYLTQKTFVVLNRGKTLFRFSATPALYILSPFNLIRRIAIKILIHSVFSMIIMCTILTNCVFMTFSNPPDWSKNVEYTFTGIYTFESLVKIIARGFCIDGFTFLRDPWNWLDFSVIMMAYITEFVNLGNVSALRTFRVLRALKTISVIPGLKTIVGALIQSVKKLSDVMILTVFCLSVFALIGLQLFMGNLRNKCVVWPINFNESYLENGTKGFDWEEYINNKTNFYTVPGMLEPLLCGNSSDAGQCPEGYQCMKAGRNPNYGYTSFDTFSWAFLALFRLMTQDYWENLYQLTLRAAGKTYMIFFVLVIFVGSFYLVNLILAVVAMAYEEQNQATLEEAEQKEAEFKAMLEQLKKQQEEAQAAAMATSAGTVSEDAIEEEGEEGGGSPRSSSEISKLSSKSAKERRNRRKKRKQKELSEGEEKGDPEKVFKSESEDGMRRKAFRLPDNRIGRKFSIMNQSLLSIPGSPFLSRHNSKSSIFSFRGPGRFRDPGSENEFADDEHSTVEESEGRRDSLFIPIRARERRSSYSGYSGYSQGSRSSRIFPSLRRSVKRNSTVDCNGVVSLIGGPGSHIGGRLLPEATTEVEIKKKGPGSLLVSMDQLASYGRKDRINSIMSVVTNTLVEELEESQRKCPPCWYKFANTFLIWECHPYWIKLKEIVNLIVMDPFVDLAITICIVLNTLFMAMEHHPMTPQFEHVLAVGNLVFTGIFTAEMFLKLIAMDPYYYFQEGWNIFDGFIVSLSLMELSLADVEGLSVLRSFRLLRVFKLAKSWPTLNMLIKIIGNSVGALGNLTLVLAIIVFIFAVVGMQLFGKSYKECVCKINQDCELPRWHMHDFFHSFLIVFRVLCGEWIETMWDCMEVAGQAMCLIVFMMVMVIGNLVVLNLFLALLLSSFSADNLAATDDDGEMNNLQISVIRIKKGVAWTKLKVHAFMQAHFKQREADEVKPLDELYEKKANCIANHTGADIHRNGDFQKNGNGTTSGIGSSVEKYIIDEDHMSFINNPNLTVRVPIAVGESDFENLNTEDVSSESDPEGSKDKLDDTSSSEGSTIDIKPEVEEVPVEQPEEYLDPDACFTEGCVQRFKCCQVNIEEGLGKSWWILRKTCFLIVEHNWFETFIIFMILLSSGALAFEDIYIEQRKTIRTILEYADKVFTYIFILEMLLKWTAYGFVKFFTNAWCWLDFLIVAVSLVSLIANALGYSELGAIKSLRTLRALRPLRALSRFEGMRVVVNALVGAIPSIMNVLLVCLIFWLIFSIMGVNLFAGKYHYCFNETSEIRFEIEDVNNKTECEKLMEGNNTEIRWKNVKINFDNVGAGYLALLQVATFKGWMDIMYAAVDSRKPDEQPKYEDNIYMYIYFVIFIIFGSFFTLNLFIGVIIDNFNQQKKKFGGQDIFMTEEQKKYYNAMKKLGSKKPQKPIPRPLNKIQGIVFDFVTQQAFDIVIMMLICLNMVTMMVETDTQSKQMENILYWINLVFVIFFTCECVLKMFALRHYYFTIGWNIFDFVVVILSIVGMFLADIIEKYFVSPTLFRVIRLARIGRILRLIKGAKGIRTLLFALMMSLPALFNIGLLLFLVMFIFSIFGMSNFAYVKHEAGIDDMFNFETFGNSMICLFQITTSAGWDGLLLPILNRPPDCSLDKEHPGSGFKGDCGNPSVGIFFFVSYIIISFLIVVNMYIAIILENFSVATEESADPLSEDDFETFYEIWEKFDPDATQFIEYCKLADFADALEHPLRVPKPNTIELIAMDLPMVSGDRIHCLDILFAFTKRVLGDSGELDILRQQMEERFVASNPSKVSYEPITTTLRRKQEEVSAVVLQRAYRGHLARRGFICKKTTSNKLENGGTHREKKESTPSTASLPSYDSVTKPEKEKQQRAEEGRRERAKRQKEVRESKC
Sequence of hNaV1.6 (Q07699 19-218, further chain): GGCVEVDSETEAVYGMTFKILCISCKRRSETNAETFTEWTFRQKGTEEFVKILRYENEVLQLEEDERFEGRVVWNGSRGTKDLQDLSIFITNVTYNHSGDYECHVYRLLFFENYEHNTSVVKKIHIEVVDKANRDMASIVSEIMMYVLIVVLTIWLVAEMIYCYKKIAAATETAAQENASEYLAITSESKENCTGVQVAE
Method: as §1, with “HEK293T cells expressing the human CaV3.2 channel (a generous gift from Prof. Emmanuel Bourinet, Institut de Génomique Fonctionnelle, Université de Montpellier, France, and Prof. Edward Perez-Reyes, University of Virginia School of Medicine, USA) were grown in Dulbecco’s MEM supplemented with 10% FBS, 100 U/mL penicillin, 100 µg/mL streptomycin, and 750 µg/mL geneticin.” left out
(§2) Sodium channel currents were recorded from HEK293 cells expressing human NaV isoforms together with the β1 auxiliary subunit (SB Drug Discovery, Glasgow, UK) using the QPatch 16X automated whole-cell patch-clamp platform (Sophion Bioscience A/S, Ballerup, Denmark). […] For determining the potency of Oa1a peptides to inhibit peak current, the maximum peak current within the 20 ms at 0 mV was measured. For determining the potency of Oa1a-NH2 to slow fast inactivation, peak current values were measured at 20 ms of the 0 mV depolarization step. […]
(§3) For calcium influx experiments, bioactivity comparisons between venom fractions and controls were based on the difference between the maximal and minimal fluorescence intensity values obtained from single-replicate assays. […] Reversibility and dissociation kinetics were analyzed by fitting data with a single-phase exponential decay model, while voltage-dependence of steady-state activation and inactivation parameters were derived from Boltzmann sigmoid fits of normalized conductance (G/Gmax) or current (I/Imax) values to determine the half-activation or half-inactivation voltages (V50). Data are expressed as mean ± SEM, where n represents the number of individual cells analyzed.

hNaV1.2 = hNaV1.2 (Homo sapiens, UniProt Q99250); experiment: hNaV1.2 peak current inhibition, automated whole-cell patch clamp (QPatch 16X); type: cell-based; settings: for IC50: HEK293 + β1, holding −80 mV, 20 ms step to 0 mV from −120 mV 200 ms prepulse, 5 min incubation, mean ± SEM, 3 to 9 independent experiments, read-out: IC50, inhibition of peak current, NaV1.2
Sequence of hNaV1.2 (Q99250 whole entry): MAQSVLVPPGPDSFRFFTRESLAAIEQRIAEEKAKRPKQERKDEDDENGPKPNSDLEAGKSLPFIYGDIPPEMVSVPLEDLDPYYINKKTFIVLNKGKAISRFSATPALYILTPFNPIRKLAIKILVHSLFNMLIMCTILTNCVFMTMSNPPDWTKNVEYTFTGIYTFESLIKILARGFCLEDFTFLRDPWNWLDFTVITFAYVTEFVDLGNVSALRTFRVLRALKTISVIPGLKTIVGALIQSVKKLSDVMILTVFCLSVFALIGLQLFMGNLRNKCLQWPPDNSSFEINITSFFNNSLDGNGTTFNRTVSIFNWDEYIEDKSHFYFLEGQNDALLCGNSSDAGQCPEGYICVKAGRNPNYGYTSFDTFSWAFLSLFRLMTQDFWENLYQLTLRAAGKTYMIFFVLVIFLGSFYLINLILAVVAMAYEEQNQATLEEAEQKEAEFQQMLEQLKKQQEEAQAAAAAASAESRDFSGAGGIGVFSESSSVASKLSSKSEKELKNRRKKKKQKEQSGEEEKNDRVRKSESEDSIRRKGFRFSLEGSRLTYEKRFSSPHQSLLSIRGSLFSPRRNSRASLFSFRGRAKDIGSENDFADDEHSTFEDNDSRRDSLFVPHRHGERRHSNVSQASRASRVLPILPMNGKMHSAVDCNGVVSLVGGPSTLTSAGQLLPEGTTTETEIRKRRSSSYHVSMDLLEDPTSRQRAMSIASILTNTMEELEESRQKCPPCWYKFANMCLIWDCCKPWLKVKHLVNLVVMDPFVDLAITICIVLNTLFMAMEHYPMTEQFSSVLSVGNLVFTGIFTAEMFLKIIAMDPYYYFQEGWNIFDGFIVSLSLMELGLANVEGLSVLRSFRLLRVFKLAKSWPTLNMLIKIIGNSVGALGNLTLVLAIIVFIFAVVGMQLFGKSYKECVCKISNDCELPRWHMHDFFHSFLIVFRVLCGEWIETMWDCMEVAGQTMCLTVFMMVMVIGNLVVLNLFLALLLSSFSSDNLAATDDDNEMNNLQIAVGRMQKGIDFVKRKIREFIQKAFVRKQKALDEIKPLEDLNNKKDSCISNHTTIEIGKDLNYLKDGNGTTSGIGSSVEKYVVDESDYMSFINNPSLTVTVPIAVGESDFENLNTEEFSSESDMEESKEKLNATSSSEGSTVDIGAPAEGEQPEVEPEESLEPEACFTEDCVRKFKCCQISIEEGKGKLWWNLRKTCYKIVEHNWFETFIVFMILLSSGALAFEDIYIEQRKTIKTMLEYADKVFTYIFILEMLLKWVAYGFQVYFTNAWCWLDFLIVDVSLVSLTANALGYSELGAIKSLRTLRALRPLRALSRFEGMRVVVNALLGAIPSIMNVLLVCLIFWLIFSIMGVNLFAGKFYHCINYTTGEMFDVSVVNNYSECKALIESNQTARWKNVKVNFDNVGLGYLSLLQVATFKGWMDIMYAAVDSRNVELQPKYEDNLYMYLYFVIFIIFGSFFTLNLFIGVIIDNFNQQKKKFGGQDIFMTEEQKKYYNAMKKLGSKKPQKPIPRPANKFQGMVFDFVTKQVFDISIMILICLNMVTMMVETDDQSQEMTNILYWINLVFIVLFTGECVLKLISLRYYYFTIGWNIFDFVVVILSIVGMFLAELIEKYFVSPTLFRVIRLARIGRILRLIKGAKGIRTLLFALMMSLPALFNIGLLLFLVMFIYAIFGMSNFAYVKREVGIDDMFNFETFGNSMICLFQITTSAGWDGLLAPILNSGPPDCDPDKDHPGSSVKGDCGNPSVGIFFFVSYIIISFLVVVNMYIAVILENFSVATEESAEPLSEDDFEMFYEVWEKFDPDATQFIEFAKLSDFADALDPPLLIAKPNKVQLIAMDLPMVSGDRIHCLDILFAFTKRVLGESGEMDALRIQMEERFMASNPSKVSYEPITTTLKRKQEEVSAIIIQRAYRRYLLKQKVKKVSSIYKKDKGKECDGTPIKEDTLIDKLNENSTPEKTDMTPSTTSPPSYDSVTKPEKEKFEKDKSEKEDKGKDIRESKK
Sequence of hNaV1.2 (Q07699 19-218, further chain): as the sequence (Q07699 19-218, further chain) above
Method: as §1, with “HEK293T cells expressing the human CaV3.2 channel (a generous gift from Prof. Emmanuel Bourinet, Institut de Génomique Fonctionnelle, Université de Montpellier, France, and Prof. Edward Perez-Reyes, University of Virginia School of Medicine, USA) were grown in Dulbecco’s MEM supplemented with 10% FBS, 100 U/mL penicillin, 100 µg/mL streptomycin, and 750 µg/mL geneticin.” left out
as §2, §3

hNaV1.5 = hNaV1.5 (Homo sapiens, UniProt Q14524); experiment: hNaV1.5 peak current inhibition, automated whole-cell patch clamp (QPatch 16X); type: cell-based; settings: for IC50: HEK293 + β1, holding −80 mV, 20 ms step to 0 mV from −120 mV 200 ms prepulse, 5 min incubation, mean ± SEM, 3 to 9 independent experiments, read-out: IC50, inhibition of peak current, NaV1.5
Method: as §1, with “HEK293T cells expressing the human CaV3.2 channel (a generous gift from Prof. Emmanuel Bourinet, Institut de Génomique Fonctionnelle, Université de Montpellier, France, and Prof. Edward Perez-Reyes, University of Virginia School of Medicine, USA) were grown in Dulbecco’s MEM supplemented with 10% FBS, 100 U/mL penicillin, 100 µg/mL streptomycin, and 750 µg/mL geneticin.” left out
as §2, §3

NaV1.1 = NaV1.1 (Homo sapiens, UniProt P35498); experiment: Off-rate / reversibility on NaV1.1, patch clamp with saline washes; type: cell-based; settings: for 95% CI of off-rate (dissociation time), NaV1.1: peptide at 10× IC50 for 10 min, then saline washes, 3 to 5 independent repeats; for Reversibility on NaV1.1 by washing: peptide at 10× IC50 for NaV1.1, then washing
Method: For off-rate measurements, cells at a holding potential −80 mV were incubated with peptide for 10 min at a concentration equivalent to 10 times their IC50 for the NaV subtype being analyzed, followed by saline washes. Na^+ currents were assessed every 10 s utilizing a holding potential −80 mV and currents elicited by 20 ms voltage step to 0 mV from a −120 mV conditioning pulse applied for 200 ms. Ion currents (INa) plotted as I/Imax, where I = current value and Imax = highest current value within the experiment.
For calcium influx experiments, bioactivity comparisons between venom fractions and controls were based on the difference between the maximal and minimal fluorescence intensity values obtained from single-replicate assays. Electrophysiological data analysis was conducted using GraphPad Prism (version 8; GraphPad Software, San Diego, CA, USA). Nonlinear regression was applied to fit the concentration–response relationships using a variable Hill slope: log(inhibitor) versus normalized response for determining IC50 values, and log(agonist) versus normalized response for EC50 calculations. Reversibility and dissociation kinetics were analyzed by fitting data with a single-phase exponential decay model, while voltage-dependence of steady-state activation and inactivation parameters were derived from Boltzmann sigmoid fits of normalized conductance (G/Gmax) or current (I/Imax) values to determine the half-activation or half-inactivation voltages (V50). Data are expressed as mean ± SEM, where n represents the number of individual cells analyzed.

hNaV1.3 = hNaV1.3 (Homo sapiens, UniProt Q9NY46); experiment: hNaV1.3 peak current inhibition, automated whole-cell patch clamp (QPatch 16X); type: cell-based; settings: for IC50: HEK293 + β1, holding −80 mV, 20 ms step to 0 mV from −120 mV 200 ms prepulse, 5 min incubation, mean ± SEM, 3 to 9 independent experiments, read-out: IC50, inhibition of peak current, NaV1.3
Method: as §1, with “HEK293T cells expressing the human CaV3.2 channel (a generous gift from Prof. Emmanuel Bourinet, Institut de Génomique Fonctionnelle, Université de Montpellier, France, and Prof. Edward Perez-Reyes, University of Virginia School of Medicine, USA) were grown in Dulbecco’s MEM supplemented with 10% FBS, 100 U/mL penicillin, 100 µg/mL streptomycin, and 750 µg/mL geneticin.” left out
as §2, §3

## CC(C)C[C@@H]1NC(=O)[C@H](Cc2ccccc2)NC(=O)[C@H](Cc2ccc(O)cc2)NC(=O)[C@H](CCCNC(=N)N)NC(=O)[C@@H](NC(=O)[C@@H](N)CCC(=O)O)CSSC[C@@H]2NC(=O)[C@@H]3CSSC[C@@H](C(=O)N[C@H](C(=O)N[C@@H](Cc4c[nH]c5ccccc45)C(=O)N[C@@H](CC(=O)O)C(=O)N[C@@H](Cc4c[nH]c5ccccc45)C(=O)N[C@H](C(=O)N[C@@H](Cc4ccccc4)C(N)=O)[C@@H](C)O)C(C)C)NC(=O)[C@H](Cc4c[nH]c5ccccc45)NC(=O)[C@H](CCC(N)=O)NC(=O)[C@H](Cc4c[nH]cn4)NC(=O)[C@H](CCCCN)NC(=O)[C@H](CC(N)=O)NC(=O)[C@H](Cc4c[nH]cn4)NC(=O)[C@H](CSSC[C@H](NC(=O)CNC(=O)CNC1=O)C(=O)N[C@@H](CO)C(=O)N[C@@H](CCC(N)=O)C(=O)NCC(=O)N[C@@H](CCC(=O)O)C(=O)N[C@@H](CCCCN)C(=O)N3)NC(=O)[C@H](C(C)C)NC(=O)[C@H](CC(C)C)NC(=O)[C@H](Cc1c[nH]cn1)NC(=O)[C@H](CCC(=O)O)NC2=O [sOa1a-NH2] (H-ECRYFLGGCSQGEKCCEHLVCHNKHQWCVWDWTF-NH2; disulfide 2-16, 9-21, 15-28; N-terminus assumed)
CaV3.2
  Activity on CaV3.2: did not observe activity
hNaV1.6
  IC50: 223 ± 18 nM
hNaV1.2
  IC50: 154 ± 7 nM
hNaV1.5
  IC50: 192 ± 4 nM
NaV1.1
  95% CI of off-rate (dissociation time), NaV1.1: Off-rate 4.6 min (95% CI = 4.27 to 4.97 min)
  Reversibility on NaV1.1 by washing: completely reversed by washing
NaV1.1; sOa1a-NH2 vs sOa1a-OH
  Increase in off-rate through C-terminal amidation, NaV1.1: 1 min
hNaV1.3
  IC50: 162 ± 8 nM

## CC(C)C[C@@H]1NC(=O)[C@H](Cc2ccccc2)NC(=O)[C@H](Cc2ccc(O)cc2)NC(=O)[C@H](CCCNC(=N)N)NC(=O)[C@@H](NC(=O)[C@@H](N)CCC(=O)O)CSSC[C@@H]2NC(=O)[C@@H]3CSSC[C@@H](C(=O)N[C@H](C(=O)N[C@@H](Cc4c[nH]c5ccccc45)C(=O)N[C@@H](CC(=O)O)C(=O)N[C@@H](Cc4c[nH]c5ccccc45)C(=O)N[C@H](C(=O)N[C@@H](Cc4ccccc4)C(=O)O)[C@@H](C)O)C(C)C)NC(=O)[C@H](Cc4c[nH]c5ccccc45)NC(=O)[C@H](CCC(N)=O)NC(=O)[C@H](Cc4c[nH]cn4)NC(=O)[C@H](CCCCN)NC(=O)[C@H](CC(N)=O)NC(=O)[C@H](Cc4c[nH]cn4)NC(=O)[C@H](CSSC[C@H](NC(=O)CNC(=O)CNC1=O)C(=O)N[C@@H](CO)C(=O)N[C@@H](CCC(N)=O)C(=O)NCC(=O)N[C@@H](CCC(=O)O)C(=O)N[C@@H](CCCCN)C(=O)N3)NC(=O)[C@H](C(C)C)NC(=O)[C@H](CC(C)C)NC(=O)[C@H](Cc1c[nH]cn1)NC(=O)[C@H](CCC(=O)O)NC2=O [sOa1a-OH] (H-ECRYFLGGCSQGEKCCEHLVCHNKHQWCVWDWTF-OH; disulfide 2-16, 9-21, 15-28; N-terminus assumed)
CaV3.2
  Activity on CaV3.2: did not observe activity
hNaV1.6
  IC50: 568 ± 38 nM
hNaV1.6; ratio of IC50 values
  Ratio OH/NH2 (IC50 sOa1a-OH / IC50 sOa1a-NH2), NaV1.6: 2.6
hNaV1.2
  IC50: > 3000 nM
hNaV1.2; tested at up to 3 μM
  Activity on NaV1.2 (in words): no activity
hNaV1.5
  IC50: 1270 ± 22 nM
hNaV1.5; ratio of IC50 values
  Ratio OH/NH2 (IC50 sOa1a-OH / IC50 sOa1a-NH2), NaV1.5: 6.6
NaV1.1
  95% CI of off-rate (dissociation time), NaV1.1: Off-rate 3.56 min (95% CI = 3.35 to 3.80 min)
  Reversibility on NaV1.1 by washing: completely reversed by washing
hNaV1.3
  IC50: > 3000 nM
hNaV1.3; tested at up to 3 μM
  Activity on NaV1.3 (in words): no activity
